Assay results: patent US20230233541A1, “SUBSTITUTED BENZAMIDES AS MODULATORS OF TREX1” (Constellation Pharmaceuticals, Inc., priority 2020, published 2023)

What was measured:
[1] = target: T1, full length human TREX1 (Homo sapiens, UniProt Q9NSU2); test: TREX1 Biochemical Assay (fluorescence assay, degradation of dsDNA substrate); conditions: 150 pM TREX1, 60 nM dsDNA substrate, 25 minutes at room temperature; read-out: hTREX1 EC50
T1 construct: N-terminally His-Tev tagged full length human TREX1; His-Tev (His tag with TEV protease site) (N); made in house; host or cells: E. coli
T1 sequence (Q9NSU2 1-314): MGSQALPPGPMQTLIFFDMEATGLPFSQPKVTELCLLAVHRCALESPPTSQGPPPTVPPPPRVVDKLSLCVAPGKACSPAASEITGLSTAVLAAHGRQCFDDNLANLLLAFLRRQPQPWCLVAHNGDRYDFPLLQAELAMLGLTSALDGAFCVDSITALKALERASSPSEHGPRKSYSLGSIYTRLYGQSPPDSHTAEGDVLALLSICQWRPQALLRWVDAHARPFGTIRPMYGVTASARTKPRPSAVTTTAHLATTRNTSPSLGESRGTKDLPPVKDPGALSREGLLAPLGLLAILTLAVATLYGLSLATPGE
Description: Degradation of the dsDNA liberates free fluorophore to produce a fluorescent signal. Specifically, 7.5 μL of N-terminally His-Tev tagged full length human TREX1 (expressed in E. coli and purified in house) in reaction buffer (50 mM Tris (pH 7.4), 150 mM NaCl, 2 mM DTT, 0.1 mg/mL BSA, 0.01% (v/v) Tween-20 and 100 mM MgCl2) was added to a 384-well Black ProxiPlate Plus (Perkin Elmer) which already contained compound (150 nL) at varying concentrations as a 10-point dose-response in DMSO. To this was added 7.5 μL of dsDNA substrate (Strand A: 5′ TEX615/GCT AGG CAG 3′; Strand B: 5′ CTG CCT AGC/IAbRQSp (Integrated DNA Technologies)) in reaction buffer. Final concentrations were 150 pM TREX1, 60 nM dsDNA substrate in reaction buffer with 1.0% DMSO (v/v). After 25 minutes at room temperature, reactions were quenched by the addition of 5 μL of stop buffer (same as reaction buffer plus 200 mM EDTA). Final concentrations in the quenched reaction were 112.5 pM TREX1, 45 nM DNA and 50 mM EDTA in a volume of 20 μL. After a 5-minute incubation at room temperature, plates were read in a laser sourced Envision (Perkin-Elmer), measuring fluorescence at 615 nm following excitation w/570 nm light. IC50 values were calculated by comparing the measured fluorescence at 615 nm ratio relative to control wells pre-quenched w/stop buffer (100% inhibition) and no inhibitor (0% inhibition) controls as using non-linear least square four parameter fits and either Genedata or GraphPad Prism (GraphPad Software, Inc.).

[2] = target: T2, human TREX2 (residues M44-A279) (Homo sapiens, UniProt Q9BQ50); test: TREX2 Biochemical Assay (fluorescence assay, degradation of dsDNA substrate); conditions: 2.5 nM TREX2, 60 nM dsDNA substrate, 25 minutes at room temperature; read-out: hTREX2 EC50
T2 construct: human TREX2 (residues M44-A279, expressed in E. coli); His-Tev (His tag with TEV protease site) (N); made in house; host or cells: E. coli
T2 sequence (Q9BQ50 44-279 isoform Q9BQ50-1): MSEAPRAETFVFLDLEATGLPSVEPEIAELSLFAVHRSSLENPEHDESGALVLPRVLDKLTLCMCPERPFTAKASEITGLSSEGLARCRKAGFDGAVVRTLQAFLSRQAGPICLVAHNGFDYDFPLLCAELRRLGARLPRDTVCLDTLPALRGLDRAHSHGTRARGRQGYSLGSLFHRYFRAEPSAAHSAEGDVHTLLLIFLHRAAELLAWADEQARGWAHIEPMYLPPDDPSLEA
Description: Degradation of the dsDNA liberates free fluorophore to produce a fluorescent signal. Specifically, 7.5 μL of N-terminally His-Tev tagged human TREX2 (residues M44-A279, expressed in E. coli and purified in house) in reaction buffer (50 mM Tris (pH 7.4), 150 mM NaCl, 2 mM DTT, 0.1 mg/mL BSA, 0.01% (v/v) Tween-20 and 100 mM MgCl2) was added to a 384-well Black ProxiPlate Plus (Perkin Elmer) which already contained compound (150 nL) at varying concentrations as a 10-point dose-response in DMSO. To this was added 7.5 μL of dsDNA substrate (Strand A: 5′ TEX615/GCT AGG CAG 3′; Strand B: 5′ CTG CCT AGC/IAbRQSp (IDT)) in reaction buffer. Final concentrations were 2.5 nM TREX2, 60 nM dsDNA substrate in reaction buffer with 1.0% DMSO (v/v). After 25 minutes at room temperature, reactions were quenched by the addition of 5 μL of stop buffer (same as reaction buffer plus 200 mM EDTA). Final concentrations in the quenched reaction mixture were […] TREX2, 45 nM DNA and 50 mM EDTA in a volume of 20 μL. After a 5-minute incubation at room temperature, plates were read in a laser sourced Envision (Perkin-Elmer), measuring fluorescence at 615 nm following excitation w/570 nm light. IC50 values were calculated by comparing the measured fluorescence at 615 nm ratio relative to control wells pre-quenched w/stop buffer (100% inhibition) and no inhibitor (0% inhibition) controls as using non-linear least square four parameter fits and either Genedata or GraphPad Prism (GraphPad Software, Inc.).

| EC50 [1] [µM] | EC50 [2] [µM] | SMILES |
| --- | --- | --- |
| > 10 | > 100 | O=C(c1cncnc1)N(Cc1cccnc1)Cc1ccc(Cl)cc1Cl [Compound 100] |
| 1 to 10 | 10 to 100 | Cc1cc(-c2ccc(CN(Cc3ccccc3Cl)C(=O)c3cc(F)cc(F)c3)cn2)[nH]n1 [Compound 219] |
| > 10 | > 100 | O=C(c1cccc(Oc2ccccc2)c1)N(Cc1cccnc1)Cc1cc(Cl)cc(Cl)c1 [Compound 66] |
| 0.1 to 1 | 10 to 100 | Cn1cc(CN(Cc2ccc(C(=O)O)nc2)C(=O)c2cc(F)cc(F)c2)c(C(F)(F)F)n1 [Compound 185] |
| 0.1 to 1 | 10 to 100 | Cn1ncc(CN(Cc2ccc(C(=O)O)nc2)C(=O)c2cc(F)cc(F)c2)c1Cl [Compound 184] |
| 1 to 10 | 10 to 100 | COC(=O)C[C@@H](c1ccc(Cl)cc1Cl)N(Cc1cccnc1)C(=O)c1cc(F)cc(F)c1 [Compound 215] |
| < 0.1 | 1 to 10 | O=C(O)c1ccc(CN(Cc2cccc(Cl)c2Cl)C(=O)c2cccc(F)c2)cn1 [Compound 147] |
| < 0.1 | 10 to 100 | CC[C@@H](c1cccc(OC2COC2)c1Cl)N(Cc1ccc(C(=O)O)nc1)C(=O)c1cc(F)cc(F)c1 [Compound 232] |
| 1 to 10 | 10 to 100 | CC[C@@H](c1ccc(Cl)cc1Cl)N(Cc1cccnc1)C(=O)c1cccc(F)c1 (single isomer, unassigned) [Compound 158] |
| 1 to 10 | > 100 | O=C(c1ccc(Br)cc1)N(Cc1cccnc1)Cc1ccc(Cl)cc1Cl [Compound 6] |
| > 10 | > 100 | O=C(c1cccc(Br)c1)N(Cc1cccnc1)Cc1cc(Cl)cc(Cl)c1 [Compound 30] |
| < 0.1 | 10 to 100 | O=C(c1cc(F)cc(F)c1)N(Cc1ccc(-c2ccn[nH]2)nc1)Cc1ccccc1Cl [Compound 170] |
| > 10 | > 100 | O=C(c1ccccc1N1CCCCC1)N(Cc1cccnc1)Cc1cc(Cl)cc(Cl)c1 [Compound 46] |
| > 10 | > 100 | COc1cc(Br)cc(C(=O)N(Cc2cccnc2)Cc2ccc(Cl)cc2Cl)c1 [Compound 87] |
| 1 to 10 | 10 to 100 | CC(C)[C@@H](c1ccc(Cl)cc1Cl)N(Cc1cccnc1)C(=O)c1cccc(F)c1 (single isomer, unassigned) [Compound 160] |
| > 10 | > 100 | O=C(c1ccc2ccccc2c1)N(Cc1cccnc1)Cc1ccc(Cl)cc1Cl [Compound 28] |
| 0.1 to 1 | 10 to 100 | O=C(c1cccc(F)c1)N(Cc1cccnc1)Cc1cccc(Cl)c1Cl [Compound 136] |
| < 0.1 | 1 to 10 | CCOc1cccc([C@H](CC)N(Cc2ccc(C(=O)O)nc2)C(=O)c2cc(F)cc(F)c2)c1Cl [Compound 229] |
| > 10 | > 100 | O=C(c1ccc(O)c(Br)c1)N(Cc1cccnc1)Cc1cc(Cl)cc(Cl)c1 [Compound 73] |
| 1 to 10 | 10 to 100 | COc1cccc([C@H](C)N(Cc2ccc(-c3ccn[nH]3)nc2)C(=O)c2cc(F)cc(F)c2)c1Cl [Compound 224] |
| 0.1 to 1 | 10 to 100 | O=C(c1cc(F)c(F)c(F)c1)N(Cc1cccnc1)Cc1ccc(Cl)cc1Cl [Compound 119] |

| EC50 [1] [µM] | EC50 [2] [µM] | SMILES |
| --- | --- | --- |
| 1 to 10 | > 100 | O=C(c1ccccc1)N(Cc1cccnc1)Cc1ccc(Cl)cc1Cl [Compound 2] |
| 1 to 10 | > 100 | O=C(c1cccc(F)c1)N(Cc1cncnc1)Cc1ccc(Cl)cc1Cl [Compound 106] |
| 1 to 10 | 10 to 100 | COC(=O)C[C@H](c1ccc(Cl)cc1Cl)N(Cc1cccnc1)C(=O)c1cc(F)cc(F)c1 [Compound 216] |
| < 0.1 | 10 to 100 | O=C(O)CC[C@@H](c1ccccc1Cl)N(Cc1cccnc1)C(=O)c1cc(F)cc(F)c1 [Compound 244] |
| > 10 | > 100 | O=C(c1ccc(Oc2ccc(F)cc2)cc1)N(Cc1cccnc1)Cc1ccc(Cl)cc1Cl [Compound 39] |
| > 10 | > 100 | O=C(c1ccc(CO)cc1)N(Cc1cccnc1)Cc1ccc(Cl)cc1Cl [Compound 83] |
| > 10 | > 100 | COc1cc(Br)cc(C(=O)N(Cc2cccnc2)Cc2cc(Cl)cc(Cl)c2)c1 [Compound 52] |
| 1 to 10 | 10 to 100 | O=C(O)CC[C@H](c1ccccc1Cl)N(Cc1cccnc1)C(=O)c1cc(F)cc(F)c1 [Compound 245] |
| 0.1 to 1 | 10 to 100 | O=C(c1cc(F)cc(F)c1)N(Cc1cccnc1)[C@H](c1cn[nH]c1)c1ccc(Cl)cc1Cl [Compound 220] |
| < 0.1 | < 1 | CC[C@H](c1cccc(Cl)c1Cl)N(Cc1ccc(C(=O)O)nc1)C(=O)c1cc(F)cc(F)c1 [Compound 255] |
| 0.1 to 1 | 10 to 100 | O=C(c1cc(F)cc(F)c1)N(Cc1ccc(-c2nnn[nH]2)nc1)Cc1ccccc1Cl [Compound 169] |
| > 10 | 10 to 100 | O=C(c1cc(Br)c(O)c(Br)c1)N(Cc1cccnc1)Cc1cc(Cl)cc(Cl)c1 [Compound 53] |
| > 10 | > 100 | O=C(c1cnco1)N(Cc1cccnc1)Cc1ccc(Cl)cc1Cl [Compound 117] |
| 1 to 10 | > 100 | O=C(c1cccc(Cl)c1)N(Cc1cccnc1)Cc1ccc(Cl)cc1Cl [Compound 5] |
| 1 to 10 | 10 to 100 | O=C(c1cccc(F)c1)N(Cc1ccc(CO)nc1)Cc1ccc(Cl)cc1Cl [Compound 145, N-(2,4-dichlorobenzyl)-3-fluoro-N-((6-(hydroxymethyl)pyridin-3-yl)methyl)benzamide] |
| 0.1 to 1 | 10 to 100 | O=C(c1cc(F)cc(F)c1)N(Cc1ccc(-c2cc(=O)[nH][nH]2)nc1)Cc1ccccc1Cl [Compound 221] |
| 1 to 10 | > 100 | O=C(c1cccc(F)c1)N(Cc1cnccn1)Cc1ccc(Cl)cc1Cl [Compound 111] |
| < 0.1 | 1 to 10 | CC[C@H](c1ccc2c(c1Cl)OCO2)N(Cc1ccc(C(=O)O)nc1)C(=O)c1cc(F)cc(F)c1 [Compound 233] |
| > 10 | > 100 | O=C(c1ccccc1Oc1ccccc1)N(Cc1cccnc1)Cc1cc(Cl)cc(Cl)c1 [Compound 55] |
| 0.1 to 1 | 1 to 10 | O=C(c1cc(F)cc(F)c1)N(Cc1cnccc1Cl)Cc1cnccc1Cl [Compound 176] |
| 0.1 to 1 | 10 to 100 | O=C(O)c1ccc(CN(Cc2cccc(Cl)c2C(F)(F)F)C(=O)c2cc(F)cc(F)c2)cn1 [Compound 198] |
